Assay results published in ChEMBL document CHEMBL2203061, “O-Aryl α,β-d-ribofuranosides: synthesis & highly efficient biocatalytic separation of anomers and evaluation of their Src kinase inhibitory activity” (Bioorg Med Chem, 2012).
Activity calls are given as the source filed them. The rule behind the calls is not given here.

Biological target: T1, Proto-oncogene tyrosine-protein kinase Src (Homo sapiens, UniProt P12931)
Assay: Inhibition of GST-tagged c-Src up to 100 uM preincubated for 5 mins measured after 30 mins

T1 sequence (P12931 2-536 limits assumed): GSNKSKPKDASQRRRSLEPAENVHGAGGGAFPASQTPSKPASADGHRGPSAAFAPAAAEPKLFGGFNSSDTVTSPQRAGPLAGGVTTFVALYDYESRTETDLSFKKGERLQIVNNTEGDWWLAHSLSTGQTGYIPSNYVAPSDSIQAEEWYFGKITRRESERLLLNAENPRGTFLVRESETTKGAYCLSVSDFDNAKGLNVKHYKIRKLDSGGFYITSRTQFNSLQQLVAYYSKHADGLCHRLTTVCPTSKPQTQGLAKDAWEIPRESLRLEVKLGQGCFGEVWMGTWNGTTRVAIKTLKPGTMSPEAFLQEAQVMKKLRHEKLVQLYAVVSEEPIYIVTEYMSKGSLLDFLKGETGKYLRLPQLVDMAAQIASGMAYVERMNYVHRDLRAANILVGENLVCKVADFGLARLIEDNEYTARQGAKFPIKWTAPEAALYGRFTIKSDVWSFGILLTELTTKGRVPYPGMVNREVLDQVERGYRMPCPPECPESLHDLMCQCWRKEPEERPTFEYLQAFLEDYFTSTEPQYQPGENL

inhibition	Compound
inactive	OC[C@H]1O[C@H](Oc2ccc(-c3ccccc3)cc2)[C@H](O)[C@@H]1O
inactive	COc1cccc(O[C@H]2O[C@H](CO)[C@@H](O)[C@H]2O)c1
inactive	OC[C@H]1O[C@H](Oc2ccc(O)cc2)[C@H](O)[C@@H]1O
inactive	COc1ccc(O[C@H]2O[C@H](CO)[C@@H](O)[C@H]2O)cc1

Biological target: T1, Proto-oncogene tyrosine-protein kinase Src
Assay: Inhibition of GST-tagged c-Src preincubated for 5 mins measured after 30 mins

IC50	Compound
451 µM	Cc1cccc(O[C@H]2O[C@H](CO)[C@@H](O)[C@H]2O)c1
143 µM	Cc1ccc(O[C@@H]2O[C@H](CO)[C@@H](O)[C@H]2O)cc1
1370 µM	OC[C@H]1O[C@@H](Oc2cccc3ccccc23)[C@H](O)[C@@H]1O
297 µM	OC[C@H]1O[C@H](Oc2ccc3ccccc3c2)[C@H](O)[C@@H]1O
185 µM	OC[C@H]1O[C@H](Oc2cccc3ccccc23)[C@H](O)[C@@H]1O
225 µM	OC[C@H]1O[C@@H](Oc2ccc3ccccc3c2)[C@H](O)[C@@H]1O
484 µM	COc1ccc(O[C@@H]2O[C@H](CO)[C@@H](O)[C@H]2O)cc1
95 µM	COc1cccc(O[C@@H]2O[C@H](CO)[C@@H](O)[C@H]2O)c1
272 µM	OC[C@H]1O[C@@H](Oc2ccc(O)cc2)[C@H](O)[C@@H]1O
125 µM	OC[C@H]1O[C@@H](Oc2ccc(-c3ccccc3)cc2)[C@H](O)[C@@H]1O
